Tests used:
Assay type in all cases: in vivo
Tomato Tumbler seeds = assay: Root elongation in germinating seeds with calcium effectors; conditions: 5 days; for Root length: 6 mM EGTA or 5 mM manganese chloride, 25° C., water 6.5; for Root elongation, in words: 6 mM EGTA, 5 mM manganese chloride
Procedure: (§1) To investigate other mechanisms that might disrupt calcium utilization by germinating seeds leading to adverse effects on root formation and elongation, a number of known calcium effectors were analyzed. EGTA is a well-known calcium-chelating compound which binds free calcium ions. The element, manganese, has been characterized to act as a calcium channel blocker in the cellular environment of the plasma membrane, thereby inhibiting uptake and utilization of calcium by the cell. Finally, auxins, like IBA, can disrupt calcium signaling pathways in the cell, thereby disrupting cellular developmental processes like rooting. For these experiments, seeds were germinated in the presence of these compounds, and the lengths of the roots (in mm) from 20 randomly-selected seeds (per treatment) were measured. These values were then compared to the lengths of the roots from 20 randomly-selected seeds germinated in water during the same time period and under the same environmental conditions.
(§2) Approximately 100 seeds of tomato (variety Tumbler commercially available from Ball Horticultural Company, 622 Town Road, West Chicago, Ill. 60185) were germinated in 125 mL Erlenmeyer flasks containing either 40 mL water, 6 mM EGTA or 5 mM manganese chloride at 25° C. in a lighted growth room on an orbital shaker. After 5 days, root lengths were measured and recorded (see Table 1 below).

[1] = test system: Pepper Holiday Flame seeds; assay: as above; conditions: 5 days; for Root length: 6 mM EGTA or 5 mM manganese chloride, 25° C., water 6.5; for Root elongation, in words: 6 mM EGTA, 5 mM manganese chloride
Procedure: as §1
as §2, with “pepper” for “tomato”, “Holiday Flame” for “Tumbler”

[2] = test system: Pansy Baby Bingo Sky Blue primed seeds; assay: as above; conditions: 5 days; for Inhibition of root length versus water-treated seeds: 6 mM EGTA, 5 mM manganese chloride; for Root length: primed, 6 mM EGTA or 5 mM manganese chloride, 25° C., water 10.3
Procedure: as §1
as §2, with “100 primed” for “100”, “pansy” for “tomato”, “Baby Bingo Sky Blue” for “Tumbler”

[3] = test system: Vinca Coconut Cooler seeds; assay: as above; conditions: 6 mM EGTA or 5 mM manganese chloride, 5 days, 25° C.
Procedure: as §1
After 5 days, root lengths were measured and recorded (see Table 1 below).

[4] = test system: Impatiens Dazzler ® Pink seeds; assay: as above; conditions: 6 mM EGTA, 5 days; for Root length: 5 mM manganese chloride or 8 ppm IBA, 25° C., 20 seeds, water 6.9; for Root growth, in words: 5 mM manganese chloride, 8 ppm IBA
Procedure: as §1
as §2, with “impatiens” for “tomato”, “Dazzler® Pink” for “Tumbler”, “EGTA,” for “EGTA or”, “chloride or 8 ppm IBA” for “chloride”

Rice Cypress seeds = assay: as above; conditions: 5 days; for Root length: 6 mM EGTA or 5 mM manganese chloride, 25° C., water 15.6
Procedure: as §1
Approximately 100 seeds of rice (variety Cypress obtained from LSU Rice Research Station) were germinated in 125 mL Erlenmeyer flasks containing either 40 mL water, 6 mM EGTA or 5 mM manganese chloride at 25° C. in a lighted growth room on an orbital shaker. After 5 days, root lengths were measured and recorded (see Table 1 below).

Arabidopsis seeds = assay: Root development of germinating seeds with sucrose in nutrient medium; conditions: 1% (w/v) added to the nutrient medium
From the text: (§3) Also different, Arabidopsis, but not impatiens, root development was sensitive to an ammonium/potassium ionic imbalance in the nutrient medium.

[5] = test system: germinating impatiens seeds; assay: as above; conditions: 1% (w/v) in the nutrient medium, liquid or solid environment
From the text: as §3

Compound	Root length (Tomato Tumbler seeds)	Root elongation, in words (Tomato Tumbler seeds)	Root length [1]	Root elongation, in words [1]	Inhibition of root length versus water-treated seeds [2]	Root length [2]	Root length ([3]; water 12.3)	Root length ([3]; water 12.3, listed as manganese)	Root length [4]	Root growth, in words [4]	Root elongation, in words (Rice Cypress seeds; 5 mM manganese chloride)	Root length (Rice Cypress seeds)	Inhibition of root elongation (Rice Cypress seeds; 6 mM EGTA)	root development, in words (Arabidopsis seeds)	root development, in words [5]
manganese chloride	4.4 mm	Modest inhibition	4.2 mm	inhibited root elongation	70-90%	1.9 mm	3.0 mm	3 mm	0.2 mm	Some minor root growth	no effect	15.6 mm			
O=C(O)CCCc1c[nH]c2ccccc12 [IBA, indole-3-butyric acid]									0.0 mm	totally inhibited					
O=C(O)CN(CCOCCOCCN(CC(=O)O)CC(=O)O)CC(=O)O [EGTA, ethylene glycol-bis (β-aminoethyl ether)-N,N,N′,N′-tetraacetic acid]	1.8 mm	significantly inhibited	1.8 mm	inhibited root elongation	an even greater extent	0.4 mm			0.0 mm	totally inhibited		3.2 mm	~80%		
OC[C@H]1O[C@@](CO)(O[C@H]2O[C@H](CO)[C@@H](O)[C@H](O)[C@H]2O)[C@@H](O)[C@@H]1O [sucrose]														stimulate root development	severely inhibited
